Assays:
[1] = in vitro; conditions: human
[2] = target: influenza RNP (Influenza A virus, UniProt P15659); experiment: cell-based
[3] = system: influenza virus (A/WSN/33); experiment: microbe, parasite or virus in culture; format: cell-based; conditions: for IC50: unidentified influenza virus, WSN, MDCK, 24 h, read-out: Viral Yield Reduction Assay IC50
[4] = in vitro; conditions: dog
[5] = target: PAC (C-terminal domain of PA, residues 256–716 of A/WSN/33) (Influenza A virus, UniProt P15659); experiment: biochemical; format: binding, influenza A/WSN/33
[6] = system: MDCK cells

| SMILES | CC50 at 24 h [1] [µM] | IC50 [2] [µM] | IC50 [3] [µM] | CC50 at 24 h [4] [µM] | inhibition of influenza viral yield (in words) [3] | Kd [5] [µM] | cytotoxicity in MDCK cells (in words) [6] |
| --- | --- | --- | --- | --- | --- | --- | --- |
| O=c1c2ccccc2nc(NCCN2CCNCC2)n1-c1ccccc1 [Compound S1a, 2-[(2-(Piperazino)ethyl)amino]-3-phenylquinazolin-4(3H)-one] | > 100 | – | – | – | – | – | – |
| Cc1ccccc1-n1c(NCCCN2CCOCC2)nc2ccccc2c1=O [Compound S1b, 2-[(3-Morpholinopropyl)amino]-3-(2-methylphenyl)quinazolin-4(3H)-one] | > 100 | 87.8 ± 21.8 | > 100 | > 100 | – | – | – |
| Cc1ccc(-n2c(NCCCN3CCOCC3)nc3ccccc3c2=O)cc1 [Compound S1c, 2-[(3-Morpholinopropyl)amino]-3-(4-methylphenyl)quinazolin-4(3H)-one] | > 100 | – | – | – | – | – | – |
| O=c1c2ccccc2nc(NCCCN2CCOCC2)n1-c1ccc(F)cc1 [Compound S1d, 3-(4-Fluorophenyl)-2-((3-morpholinopropyl)amino)quinazolin-4(3H)-one] | > 100 | – | – | – | – | – | – |
| O=c1c2c(O)c(Cc3ccccc3)c(=O)n(CCO)c2n(-c2ccccc2)c(=O)n1-c1ccccc1 [Compound S2a, 6-benzyl-5-hydroxy-8-(2-hydroxyethyl)-1,3-diphenylpyrido[2,3-d]pyrimidine-2,4,7(1H,3H,8H)-trione] | 84.6 ± 17.3 | 9.69 ± 3 | 7.74 ± 6.02 | > 100 | dose-dependent inhibition of influenza virus | 1.77 ± 0.78 | slight cytotoxicity at their highest tested concentration |
| CC(c1ccccc1)c1c(O)c2c(=O)n(-c3ccccc3)c(=O)n(-c3ccccc3)c2[nH]c1=O (centres unmarked) [Compound S2b, 5-hydroxy-1,3-diphenyl-6-(1-phenylethyl)pyrido[2,3-d]pyrimidine-2,4,7(1H,3H,8H)-trione] | > 100 | 14.2 ± 3.6 | 4.96 ± 3.84 | 42.8 ± 9 | dose-dependent inhibition of influenza virus | 16.2 ± 8.3 | – |
| CC(c1ccccc1)c1c(O)c2c(=O)n(-c3ccccc3)c(=O)n(-c3ccccc3)c2n(C)c1=O (centres unmarked) [Compound S2c, 5-hydroxy-8-methyl-1,3-diphenyl-6-(1-phenylethyl)pyrido[2,3-d]pyrimidine-2,4,7(1H,3H,8H)-trione] | 97.1 ± 16.1 | – | – | – | – | – | – |
| COc1c(C(C)c2ccccc2)c(=O)n(C)c2c1c(=O)n(-c1ccccc1)c(=O)n2-c1ccccc1 (centres unmarked) [Compound S2d, 5-methoxy-8-methyl-1,3-diphenyl-6-(1-phenylethyl)pyrido[2,3-d]pyrimidine-2,4,7(1H,3H,8H)-trione] | 66.6 ± 6.09 | > 12.5 | 3.18 ± 2.44 | 35.6 ± 9.24 | dose-dependent inhibition of influenza virus | > 25 | – |
| CC(=O)n1c(=O)c(C(C)c2ccccc2)c(O)c2c(=O)n(-c3ccccc3)c(=O)n(-c3ccccc3)c21 (centres unmarked) [Compound S2e, 8-acetyl-5-hydroxy-1,3-diphenyl-6-(1-phenylethyl)pyrido[2,3-d]pyrimidine-2,4,7(1H,3H,8H)-trione] | > 100 | 6.69 ± 7.49 | 5.11 ± 4.22 | 53.1 ± 9.25 | dose-dependent inhibition of influenza virus | 50.9 ± 25.5 | – |
| Cn1c(=O)c(Nc2ccccc2)c(O)c2c(=O)n(-c3ccccc3)c(=O)n(-c3ccccc3)c21 [Compound S2f, 5-hydroxy-8-methyl-1,3-diphenyl-6-(phenylamino)pyrido[2,3-d]pyrimidine-2,4,7(1H,3H,8H)-trione] | > 100 | 62.4 ± 22.4 | > 100 | > 100 | inability to attenuate influenza virus | – | – |

— publication PMC5797126, “Identification of influenza polymerase inhibitors targeting C-terminal domain of PA through surface plasmon resonance screening” (Scientific Reports, 2018)
